For orientation: melting point means the temperature of the solid-liquid transition.

For the compound `CC1(c2ccccc2)SC(=S)N(Nc2ccccc2)C1=NOC(=O)Nc1ccc(Cl)c(Cl)c1` (stereo not shown), the melting point was in the range of 95 to 96 °C.

(Values after US6713629B2 (dated 2004).)
